This passage reports EC50, IC50 and CC50 results from ChEMBL document CHEMBL1201862, “PubChem BioAssay data set” (2004).

One may read the EC50 as the concentration that produces a half-maximal response. The term IC50 denotes the concentration that inhibits the measured activity by half.

SMILES strings stand for the structures. Activity calls are given as the source filed them.

The target in experiment [1] is T1, Heat shock factor protein 1 (Mus musculus, UniProt P38532).
T1 sequence (P38532 whole entry): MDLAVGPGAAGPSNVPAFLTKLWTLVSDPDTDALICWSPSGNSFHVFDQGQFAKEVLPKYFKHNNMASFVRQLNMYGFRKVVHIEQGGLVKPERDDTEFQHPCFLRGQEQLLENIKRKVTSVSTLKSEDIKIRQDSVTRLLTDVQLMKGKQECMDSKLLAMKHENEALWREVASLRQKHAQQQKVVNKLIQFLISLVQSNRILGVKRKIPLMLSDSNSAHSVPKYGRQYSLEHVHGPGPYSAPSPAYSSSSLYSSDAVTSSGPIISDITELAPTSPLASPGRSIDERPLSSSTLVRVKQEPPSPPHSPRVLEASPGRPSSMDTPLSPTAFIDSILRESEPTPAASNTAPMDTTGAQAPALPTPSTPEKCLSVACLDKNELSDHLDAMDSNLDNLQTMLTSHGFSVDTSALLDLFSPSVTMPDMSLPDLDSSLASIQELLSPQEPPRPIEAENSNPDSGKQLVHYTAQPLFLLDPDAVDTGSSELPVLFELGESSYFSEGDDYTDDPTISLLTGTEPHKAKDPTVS
Briefly: decrease of HSF1-responsive luciferase luminescence – cell-based, NIH3T3, dose retest, confirmation (AID 2382).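 Further: NIH3T3 fibroblasts with HSF1-driven luciferase reporter stressed by proteasome inhibitor MG132; luminescence from HSF1-driven luciferase expression after 8 hours of MG132 stress.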 The format is functional.

The target of experiment [2] is T1, Heat shock factor protein 1. The experiment is described as follows: enhancement of HSF1-driven luciferase signal – cell-based, NIH3T3, luminescence, dose retest, confirmation (AID 435004).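 Further: stress induced by proteasome inhibitor MG132 added 30 min after compound; luciferase reporter driven by HSF1 response element in NIH3T3 cells; actives raise luminescence as potentiators of the MG132 stress response.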 The format is functional.
The test system of another experiment is H9c2. Briefly: cells. It is filed as functional, cell-based. Particulars: Rattus norvegicus, H9c2, Myocardium.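 Further: confirmatory concentration-response retest of ultra-high-throughput screening hits for modulation of myocardial damage; cell death induced by hydrogen peroxide oxidative stress; compound pretreatment for 60 min then peroxide exposure for 2 h; potency is for protecting the cells against peroxide damage rather than for killing them.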
Experiment [3] can be described thus: microbe, parasite or virus in culture. It is filed as functional. Conditions: Mycobacterium tuberculosis.

Turning to `CCN1C(NCCc2cccs2)=N[C@@H](c2cccs2)C(C(=O)OC)=C1C`, the EC50 in experiment [1] is on record as > 195 µM (not active).
`CCOc1ccccc1NC(=O)CCS(=O)(=O)c1cccs1`: in experiment [1], the EC50 is > 195 µM (not active).
For the molecule `Cc1ccc(CN(C)C(=O)C2CCC(=O)N(CCc3ccccc3)C2)o1` (stereo not drawn), the EC50 in experiment [2] was > 260 µM (inactive).
For the molecule `CC1=C(C(=O)Nc2ccccc2C)C(c2cccs2)NC(S)=N1` (stereo not drawn), the EC50 in experiment [1] is reported as > 195 µM (not active).
Still for that read-out and setting: the same measure for `COc1ccc(Cn2nnnc2C(c2ccccc2Cl)N2CCC(C(N)=O)CC2)cc1` (stereo not drawn): > 195 µM (not active).
For the molecule `COc1ccc(NC(=O)NNC(=O)c2cc3occc3n2C)c(OC)c1`, the EC50 in experiment [2] was > 260 µM (inactive).
Take `CC1Cc2ccccc2N1C(=O)CSc1ncccc1C(=O)O` (stereo not drawn): the concentration giving a half-maximal response (EC50) in experiment [1] is > 195 µM (not active).
In the case of `COc1cc(NC(=O)c2cc3ccccc3cc2OC)ccc1NC(=O)c1cccs1`, the EC50 in experiment [1] is 14.1 µM (active). For the same molecule, the IC50 in the experiment with H9c2 is > 79 µM (inactive).
As for `Cc1ccccc1-n1c(=O)cc(N2CCc3ccccc32)[nH]c1=O`, the EC50 in experiment [1] was > 195 µM (not active).
In the case of `CCOc1ccc(CN(C)CC(O)COC(c2ccc(OC)cc2)c2ccc(OC)cc2)cc1` (stereo not drawn), the CC50 in experiment [3] is 26.6 µM (active). Further, the EC50 in experiment [2] was > 260 µM (inactive).
Consider `Cn1c(SCC(=O)NNC(=O)Nc2ccc(Cl)cc2)nnc1-c1ccccc1`, for which the EC50 in experiment [2] was > 260 µM (inactive).
